According to ChEMBL document CHEMBL1201862, “PubChem BioAssay data set” (2004):
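Exposure lasted 48 hours, with cells grown in 96-well plates and compounds tested at five concentrations. GI50 marks 50% less growth.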 Calls of active or inactive are those of the source. Cut-off read from the data, not from the text of the source: active = GI50 up to about 1.1 µM and inactive = higher.

Experiments:
Assay in all cases: DTP human tumour cell line panel, 48 h
NCI-H226 = system: NCI-H226
HL-60 = system: HL-60
MCF7 = system: MCF7
IGROV-1 = system: IGROV-1
T47D = system: T47D
M14 = system: M14
MOLT-4 = system: MOLT-4
OVCAR-8 = system: OVCAR-8
A498 = system: A498
786-0 = system: 786-0
UO-31 = system: UO-31
COLO 205 = system: COLO 205
SK-MEL-28 = system: SK-MEL-28
HCT-15 = system: HCT-15
SF-268 = system: SF-268
CAKI-1 = system: CAKI-1
MDA-MB-231 = system: MDA-MB-231
Malme-3M = system: Malme-3M
SNB-75 = system: SNB-75

Row | Structure (SMILES) | GI50 (NCI-H226) | GI50 (HL-60) | GI50 (MCF7) | GI50 (IGROV-1) | GI50 (T47D) | GI50 (M14) | GI50 (MOLT-4) | GI50 (OVCAR-8) | GI50 (A498) | GI50 (786-0) | GI50 (UO-31) | GI50 (COLO 205) | GI50 (SK-MEL-28) | GI50 (HCT-15) | GI50 (SF-268) | GI50 (CAKI-1) | GI50 (MDA-MB-231) | GI50 (Malme-3M) | GI50 (SNB-75)
1 | CCN1C(Cl)=NS(=O)(=O)c2ccccc21 | 21.6 µM (inactive) | 3.87 µM (inactive) | 27.5 µM (inactive) | 23.1 µM (inactive) | 30 µM (inactive) | 14.9 µM (inactive) | 10.2 µM (inactive) | 28.3 µM (inactive) | 22.4 µM (inactive) | 19.3 µM (inactive) | 16.9 µM (inactive) | 14.9 µM (inactive) | 74.8 µM (inactive) | 9.86 µM | 36.6 µM (inactive) | 1.93 µM (inactive) | 23 µM (inactive) | – | –
2 | Cc1cc(C)n2c(nc3ccccc32)c1C#N | > 100 µM (inactive) | > 100 µM (inactive) | > 100 µM (inactive) | > 100 µM (inactive) | > 100 µM (inactive) | > 100 µM (inactive) | 93.8 µM (inactive) | > 100 µM (inactive) | > 100 µM (inactive) | > 100 µM (inactive) | > 100 µM (inactive) | > 100 µM (inactive) | > 100 µM (inactive) | > 100 µM | – | > 100 µM (inactive) | 69.2 µM (inactive) | > 100 µM (inactive) | –
3 | CC(c1ccccc1)n1cncc1C(=O)NN1CCN(C)CC1 (configuration not stated) | 3.81 µM (inactive) | > 10 µM (inactive) | > 10 µM (inactive) | > 10 µM (inactive) | > 10 µM (inactive) | > 10 µM (inactive) | > 10 µM (inactive) | > 10 µM (inactive) | > 10 µM (inactive) | > 10 µM (inactive) | – | > 10 µM (inactive) | > 10 µM (inactive) | > 10 µM | > 10 µM (inactive) | > 10 µM (inactive) | > 10 µM (inactive) | > 10 µM (inactive) | –
4 | Cc1cc(O)c(C(C)C)cc1/N=C/c1ccccc1O | 5.52 µM (inactive) | 0.303 µM (active) | 7.26 µM (inactive) | 8.43 µM (inactive) | 0.36 µM (active) | 15.4 µM (inactive) | 0.301 µM (active) | 1.8 µM (inactive) | 23.6 µM (inactive) | 5.73 µM (inactive) | 13.2 µM (inactive) | 25.5 µM (inactive) | 15.1 µM (inactive) | 3.97 µM | 6.21 µM (inactive) | 12.1 µM (inactive) | 1.73 µM (inactive) | 14.7 µM (inactive) | –
5 | C[C@@H]1CCC2[C@@H](C)[C@@H](O[C@H]3O[C@@H]4O[C@@]5(C)CCC6[C@H](C)CCC([C@H]3C)[C@]64OO5)O[C@@H]3O[C@@]4(C)CCC1[C@@]23OO4 (some centres not stated) | > 15.6 µM (inactive) | 0.5 µM (active) | 1.51 µM (inactive) | > 25 µM (inactive) | 1.17 µM (inactive) | > 25 µM (inactive) | 2.17 µM (inactive) | 1.19 µM (inactive) | > 25 µM (inactive) | 21.9 µM (inactive) | 1.71 µM (inactive) | 1.17 µM (inactive) | > 25 µM (inactive) | 0.733 µM | > 25 µM (inactive) | > 25 µM (inactive) | > 25 µM (inactive) | – | > 10.8 µM (inactive)
6 | COc1cccc(-c2cc(O)c3cc(OC)ccc3n2)c1 | 0.396 µM (active) | 0.0791 µM (active) | 0.364 µM (active) | 0.483 µM (active) | > 10 µM (inactive) | 0.235 µM (active) | 0.311 µM (active) | 0.344 µM (active) | 0.0158 µM (active) | 0.376 µM (active) | 0.426 µM (active) | 0.201 µM (active) | – | 0.366 µM | 0.71 µM (active) | 0.475 µM (active) | 0.368 µM (active) | 0.0553 µM (active) | 0.318 µM (active)
7 | Nc1ccc(Oc2ccc(C34CC5CC6C3CC3CC4C(C5)C6(c4ccc(Oc5ccc(N)cc5)cc4)C3)cc2)cc1 | 22.8 µM (inactive) | 7.14 µM (inactive) | 36.2 µM (inactive) | 23.8 µM (inactive) | 9.14 µM (inactive) | 0.583 µM (active) | 7.98 µM (inactive) | 31.9 µM (inactive) | 22.2 µM (inactive) | 13.4 µM (inactive) | 8.36 µM (inactive) | < 0.01 µM (active) | 0.714 µM (active) | 21.8 µM | 22.6 µM (inactive) | 19 µM (inactive) | 9.08 µM (inactive) | 0.216 µM (active) | –
8 | C=C1C2CCC3C4(C)CCCC(C)(C(=O)O)C4CCC3(C2)C1OC(=O)/C(C)=C/C (configuration not stated) | 36 µM (inactive) | 29.9 µM (inactive) | 32.7 µM (inactive) | 27.1 µM (inactive) | 43 µM (inactive) | 20.8 µM (inactive) | – | 32.7 µM (inactive) | 25.3 µM (inactive) | 60.7 µM (inactive) | 21 µM (inactive) | 29.6 µM (inactive) | 51.6 µM (inactive) | 22.9 µM | 38.7 µM (inactive) | 26.2 µM (inactive) | 20.9 µM (inactive) | 30 µM (inactive) | 70.8 µM (inactive)
9 | CSc1ccn(C2CC(F)C(CO)O2)c(=O)n1 (configuration not stated) | > 100 µM (inactive) | > 100 µM (inactive) | > 100 µM (inactive) | > 100 µM (inactive) | > 100 µM (inactive) | > 100 µM (inactive) | > 100 µM (inactive) | > 100 µM (inactive) | > 100 µM (inactive) | > 100 µM (inactive) | > 100 µM (inactive) | > 100 µM (inactive) | – | > 100 µM | > 100 µM (inactive) | > 100 µM (inactive) | > 100 µM (inactive) | > 100 µM (inactive) | > 100 µM (inactive)
10 | Nc1nc(Nc2ccccc2)c2[nH]cnc2n1 | 40.6 µM (inactive) | 37.3 µM (inactive) | > 100 µM (inactive) | 32 µM (inactive) | > 100 µM (inactive) | > 100 µM (inactive) | 38.9 µM (inactive) | > 100 µM (inactive) | 20.3 µM (inactive) | > 100 µM (inactive) | 34.8 µM (inactive) | 89.9 µM (inactive) | > 100 µM (inactive) | 52 µM | – | 49.2 µM (inactive) | > 100 µM (inactive) | 30.6 µM (inactive) | 9.57 µM (inactive)
11 | CO[C@H]1C[C@@H]2CC[C@@H](C)[C@@](O)(O2)C(=O)C(=O)N2CCCC[C@H]2C(=O)O[C@H]([C@H](C)C[C@@H]2CC[C@@H](OC(=O)C(C)(CO)CO)[C@H](OC)C2)CC(=O)[C@H](C)/C=C(\C)[C@@H](O)[C@@H](OC)C(=O)[C@H](C)C[C@H](C)/C=C/C=C/C=C/1C [TEMSIROLIMUS] | 0.0116 µM (active) | 2.72 µM (inactive) | 0.00538 µM (active) | – | 0.000995 µM (active) | 0.0417 µM (active) | 0.00176 µM (active) | 0.00388 µM (active) | 0.0363 µM (active) | 0.00312 µM (active) | 0.00496 µM (active) | 3.98 µM (inactive) | 0.0298 µM (active) | 0.0849 µM | 0.00873 µM (active) | 0.0142 µM (active) | 0.0217 µM (active) | 0.000199 µM (active) | 0.0104 µM (active)
12 | COCc1cc2c(cc1/C=C/[N+](=O)[O-])OCO2 | 19.8 µM (inactive) | 23.4 µM (inactive) | 29.7 µM (inactive) | 22.8 µM (inactive) | 21.1 µM (inactive) | 16.7 µM (inactive) | > 100 µM (inactive) | 23 µM (inactive) | 17 µM (inactive) | 16.9 µM (inactive) | 17 µM (inactive) | 18.2 µM (inactive) | 11 µM (inactive) | 19.7 µM | 20.7 µM (inactive) | 19.6 µM (inactive) | 20.4 µM (inactive) | – | 17.9 µM (inactive)
13 | CCOC(=O)C1=C(C)N(Cc2ccccc2)C2(O)C(OC)CC(=O)C3C(=O)N(c4ccccc4)C(=O)C132 (configuration not stated) | 15.1 µM (inactive) | 3.93 µM (inactive) | 3.61 µM (inactive) | 15.7 µM (inactive) | 4.28 µM (inactive) | 19.9 µM (inactive) | 7.45 µM (inactive) | 5.53 µM (inactive) | 21.5 µM (inactive) | 8.07 µM (inactive) | 13.3 µM (inactive) | 7.21 µM (inactive) | 7.33 µM (inactive) | 5.75 µM | 9.33 µM (inactive) | 17 µM (inactive) | 13.5 µM (inactive) | 14.5 µM (inactive) | –
14 | CC1(O)CC23CC1CCC2(C)C12CCCC(C)(C(=O)O1)C2CC3O (configuration not stated) | > 100 µM (inactive) | > 10 µM (inactive) | > 100 µM (inactive) | > 100 µM (inactive) | > 100 µM (inactive) | > 100 µM (inactive) | – | > 100 µM (inactive) | > 100 µM (inactive) | > 100 µM (inactive) | > 100 µM (inactive) | > 100 µM (inactive) | > 100 µM (inactive) | > 100 µM | > 100 µM (inactive) | > 100 µM (inactive) | > 100 µM (inactive) | > 100 µM (inactive) | > 100 µM (inactive)
15 | CC(=O)CCC(=O)CC(O)(C(F)(F)F)C(F)(F)F | 11.6 µM (inactive) | 18.5 µM (inactive) | 18.8 µM (inactive) | 15.4 µM (inactive) | 11.4 µM (inactive) | 19.9 µM (inactive) | 17.9 µM (inactive) | 19.6 µM (inactive) | 5.01 µM (inactive) | 16.2 µM (inactive) | 14.5 µM (inactive) | 17.9 µM (inactive) | 22.7 µM (inactive) | 20.1 µM | 22.3 µM (inactive) | – | 19.2 µM (inactive) | 16.7 µM (inactive) | 27.5 µM (inactive)
